Values quoted from earlier work, collected in patent US7135436B2, “Solid algicide, preparation and usage in recirculating water” (J.F. Daley International, Ltd., priority 2003, dated 2006).

Details: at 20° C.; 'believed to be'

CCNc1nc(Cl)nc(NC(C)(C)C)n1 [terbuthylazine, 2-(tert-butylamino)-4-chloro-6-(ethylamino)-s-triazine]
solubility of terbuthylazine in water: about 5 ppm
